For test [1], the target named is Protein A purified IgG (rabbit antibodies to diacyl hydrazines). The test is described as follows: Indirect immunoassay (inhibition of purified IgG binding to RH2703-BSA coating antigen). The conditions noted are these: indirect assay; for IC50: RH2703-BSA coating antigen, absorbance at 410 nm; for Cross reactivity: IC50 of RH5992 / IC50 of analog x 100. The source says: (§1) As used herein the term "IC50 " is defined as the concentration of the inhibitor required to reduce the absorbance to one-half the absorbance measured when no inhibitor was present. This determination is accomplished by plotting the percent (%) activity remaining versus the concentration of the inhibitor where the percent (%) activity remaining is given by:
(§2) % activity=(Ao -Ai /Ao)×100
(§3) where Ao is the measured absorbance when no inhibitor is present and Ai is the measured absorbance at the i^th concentration of inhibitor. The percent inhibition is then given by the relationship 100-(% activity).
The percent cross reactivity was derived by the equation: […]
where IC50,5992 is the IC50 concentration for RH5992 as determined above and IC50,analog is the IC50 concentration of the analog, i.e., RH2703, RH2651, and RH0345.
(§4) Sensitivity in ng is calculated from the concentration of the inhibitor determined from regression analysis of the standard deviations of the replicate analyses of the standard concentrations as described in the equation: […]
(§5) where S is the sensitivity in ng, Yint is the Y-intercept of the regression line from the standard deviations of the replicate analyses in absorbance units, m is the slope of the regression line in absorbance units per ng/ml and V is the volume of sample applied to the microtiter plate in ml.
RH2703-BSA was used as the coating antigen. The concentration required to give a readable response (0.3-0.5 absorbance units @ 410 nm) in the presence of the minimum quantity of antigen (RH2703) was optimized in the presence of a constant amount of protein A purified IgG (10 μl of a 20 μg/ml solution, 100 ng/well) by a checkerboard type assay (see Voller et al, Bull of World Health Organization, 53, 35 (1976)). The concentration of the Protein A purified IgG had been previously optimized in the presence of a constant amount of coating antigen (RH2703-BSA, 100 μl of a 10 μg/ml solution) to give a readable response to the minimum amount of RH5992.
Antibody concentration was optimized to be approximately 20 μg/ml (100 ng per micro well) and the coating antigen was optimized to be 25 ng/ml or 2.5 ng per micro well. When converted to a molar basis and assuming a hapten/protein binding ratio of 55, the hapten is in a three-fold molar excess of the IgG added.
The percent inhibition for RH2703, RH2651, RH5992, RH0345 and RH2485 were determined to the protein IgG in the presence of the optimized concentration of RH2703-BSA coating antigen. Each test substance was assayed at seven concentrations ranging from no test substance 0 ng/ml to 1000 ng/ml. The assay at each concentration was replicated seven times. Antigen negative and antibody negative wells provided negative controls while KLH/anti-KLH wells were used as positive controls.
Serial dilutions of the test substance stock solutions were made with coating buffer containing 0.1% TWEEN 20 polysorbate to give 1000 ng/ml, 100 ng/ml, 10 ng/ml, 1 ng/ml, 0.1 ng/ml, and 0.01 ng/ml assay concentrations. Coating buffer w/0.1% TWEEN 20 polysorbate was used as the 0 ng/ml assay concentration. The test substance assay concentrations (190 μl each) were incubated with 10 μl of the protein A IgG ([…]) for one hour at room temperature. After the incubation period, 100 μl of the test substance-IgG mixture was transferred to the appropriate microtiter well. The microtiter wells had been previously coated with the optimized concentration of RH2703-BSA and the excess protein binding sites were blocked with 0.3 ml of a 1% BSA solution in coating buffer. The plates were incubated for an additional hour at room temperature.
After the second incubation the plates were washed and goat, anti-rabbit immunoglobulin conjugated to alkaline phosphatase (0.6 mg reconstituted with 1 ml 50% glycerol and subsequently diluted with 1:5000 with blocking solution Pierce Chemical Co) was added. The plates were incubated, washed and PNPP substrate added as described in Example 5. […]

Test [2] has as its system ^2651 IgG (coating antibody). The test is described as follows: Direct assay (competition with 2651-HRP for immobilized ^2651 IgG coating antibody). The test is classed as binding, rabbit. Particulars: for IC50: 2651-HRP label, absorbance at 450 nm; for Cross reactivity, RH2651: relative to RH2651; for Cross reactivity, RH5992: relative to RH5992.
Description: as §1, §2, §3, §4, §5
A microplate was coated with ^2651 IgG. Starting with column 1, 100 μl of 10 μg/ml ^2651 IgG were added to each well and 1:2 serial dilutions made across the plate. The plate was sealed and stored at 4° C. until ready to use. After emptying, the plate was washed with 0.01% Tween 20 in PBS and blocked with 1% BSA in PBS for about 1 hour at room temperature. After blocking, the plate was emptied and 150 μl PBS added to each well. Then 50 μl of 2651-HRP dilutions were added down the plate starting with 10 μg/ml and continuing with 1:2 dilutions down the plate. After a 1 hour room temperature incubation, the plate was washed as before and 150 μl 1-Step® Slow-TMB (peroxidase substrate from Pierce Chemical Co.) was added to each well. After one hour development, 150 μl of 1N H2 SO4 was added to stop the reaction and the absorbance of each well measured at 450 nm with the Dynatech MR5000 Microplate Reader. Controls included wells with no coating antibody and wells in which no 2651-HRP were added. A ^2651 IgG coating antibody concentration of 0.625 μg/ml and a 2561-HRP concentration of 1.25 μg/ml were determined to be the optimum concentration for use with 1-Step® Slow-TMB substrate.
The wells of a microplate were coated with 100 μl each of 0.625 μg/ml ^2651 IgG. One row was left uncoated as a control. The plate was kept at 4° C. overnight. The following day the plate was washed with 0.01% Tween 20 polysorbate in PBS and blocked with 1% BSA in PBS for at least 30 minutes. Standard solutions of RH5992, RH2651, RH2703, and RH2485 were made from 1 mg/ml stock solutions. Standard solutions of RH0345 were prepared from a 0.1 ng/ml, 0.5 ng/ml, 1 ng/ml, 5 ng/ml, 10 ng/ml, 50 ng/ml, and 100 ng/ml. After the blocking lo solution was emptied, 150 μl of the standards were added to the appropriate wells. For the zero control 150 μl of PBS was added. After a 45 minute incubation at room temperature, 50 μl of 1.25 μg/ml 2651-HRP were added to each well and the plate agitated to mix the contents. […] After incubation for 45 minutes at room temperature, the plate was washed as before and 150 μl 2651-HRP was added to each well and the plate agitated to mix the contents. […] After incubation for 45 minutes at room temperature, the plate was washed as before and 150 μl Step 1® Slow TMB added to each well. After 2 hours at room temperature, 150 μl 1N H2 SO4 was added to each well and the absorbance read at 450 nm with the Dynatech MR5000 Microplate Reader.
FIG. 16a illustrates a typical curve generated from the assay. The linear portion of the curve is visualized between 0.01 ng/ml and 10 ng/ml. A typical standard curve in the linear range of the assay is illustrated by FIG. 16b using inverse absorbances to generate a positive slope. The limit of detection was calculated as 0.096 ng/ml and the sensitivity calculated as 0.005 ng for RH5992.

SMILES strings stand for the structures. In brackets after ≈: the same amount, converted by molar mass.

In the case of `CC(C)(C)N(NC(=O)c1ccc(Cl)cc1)C(=O)c1ccccc1` [RH0345], in test [1], the IC50 (usually the concentration at which inhibition is half-maximal) was 6.5 ng/mL and the Cross reactivity was 9%. Further, in test [2], the half-inhibitory concentration (IC50) was found to be 16.94 ng/mL (≈ 0.0512 µM); the “Cross reactivity, RH2651” value came to 6.9%; the “Cross reactivity, RH5992” value is recorded as 21.5%.
As to `COc1cccc(C(=O)NN(C(=O)c2cc(C)cc(C)c2)C(C)(C)C)c1C` [RH2485], the IC50 in test [1] was found to be 0.05 ng/mL. For the same compound, in test [2], the half-maximal inhibitory concentration (IC50) was 4.64 ng/mL (≈ 0.0126 µM); the “Cross reactivity, RH2651” value was determined as 25%; the “Cross reactivity, RH5992” value is 78.4%.
Regarding `Cc1cc(C)cc(C(=O)N(NC(=O)c2ccc(C(=O)O)cc2)C(C)(C)C)c1` [RH2651], in test [1], the half-inhibitory concentration (IC50) was determined as 1.59 ng/mL and the Cross reactivity is given as 38%. In test [2], the concentration for half-maximal inhibition (IC50) turned out to be 1.17 ng/mL (≈ 0.00318 µM); the “Cross reactivity, RH2651” value turned out to be 100%; the “Cross reactivity, RH5992” value worked out at 311%.
On to `Cc1cc(C)cc(C(=O)N(NC(=O)c2ccc(CC(=O)O)cc2)C(C)(C)C)c1` [RH2703], for which, in test [1], the IC50 worked out at 1.13 ng/mL and the Cross reactivity came to 54%. Further, in test [2], the 50% inhibitory concentration (IC50) worked out at 2.10 ng/mL (≈ 0.00549 µM); the “Cross reactivity, RH2651” value was determined as 56%; the “Cross reactivity, RH5992” value worked out at 173%.
In the case of `CCc1ccc(C(=O)NN(C(=O)c2cc(C)cc(C)c2)C(C)(C)C)cc1` [RH5992], in test [1], the IC50 was 0.61 ng/mL and the Cross reactivity is given as 100%. Moreover, in test [2], the 50% inhibitory concentration (IC50) is 3.64 ng/mL (≈ 0.0103 µM); the “Cross reactivity, RH2651” value was 32%; the “Cross reactivity, RH5992” value is on record as 100%.

The record behind these values is patent US5948406A, “Immunogens, antibodies formed therefrom, and coating antigens useful in a diacylhydrazine immunoassay method” (Rohm and Haas Company, priority 1997, dated 1999).
